14 compounds from patent US9034866B2 (Genentech, Inc., priority 2012, dated 2015) can be followed below.

Structures are written as SMILES. Read-outs that look alike come from different tables or passages of the source.

The test system of assay [1] is p52 (NF-kB2) nuclear translocation in HeLa cells. Put plainly: p52 nuclear translocation assay (non-classical NF-kB signaling), high content imaging. The format is cell-based. As to conditions: Homo sapiens, 100 ng/mL anti-lymphotoxin beta receptor antibody for 5 hours, read-out: p52 HeLa Transloc Assay (IC50). As for the experimental part: (§1) (2) A second set of cell assay are used to define the selectivity of NIK inhibitors toward inhibition of classical vs. non-classical NF-kB signaling and rely on quantification of the nuclear translocation of p52 (NF-kB2) and REL-A (p65) using high content cellular imaging. For the p52 (non-classical NF-kB signaling) nuclear translocation assay, HeLa cells are treated with different concentrations of compounds (0.2% DMSO final) in medium containing 10% fetal bovine serum and then stimulated with 100 ng/mL, of an anti-lymphotoxin beta receptor antibody (R&D Systems) for 5 hours. In the REL-A nuclear translocation assay, HeLa cells are incubated with compounds (0.2% DMSO final) for 4.5 hours in medium containing 10% fetal bovine serum before stimulating them with 10 ng/mL tumor necrosis factor (TNF)-α (R&D Systems) for 30 minutes. Cells are fixed with 4% paraformaldehyde, permeabilized by adding 0.1% Triton X-100 in phosphate buffered saline, and then are incubated with either 2 ug/mL anti-p52 antibody (Millipore) or 400 ng/mL anti-REL-A (p65) antibody (Santa Cruz Biotechnology). Finally, the cells are incubated with an Alexa488-labeled secondary antibody (Invitrogen) and DRAQ5 DNA stain (Biostatus). Imaging is carried out using an Opera reader (Perkin Elmer) and data are analyzed with the aid of Acapella software (Perkin Elmer). The p52 or REL-A translocation into the nucleus is quantified by the ratio of the nuclear to cytoplasmic signal intensity. […] The compounds in listed in Table 1 have the corresponding inhibitory value (IC50 in micromolar) for NIK p52 Translocation Assay as set forth in Table 2.

In assay [2] the test system is REL-A (p65) nuclear translocation in HeLa cells. Put plainly: REL-A nuclear translocation assay (classical NF-kB signaling), high content imaging. Format: cell-based. As to conditions: Homo sapiens, compounds 4.5 hours, then 10 ng/mL TNF-α for 30 minutes, read-out: REL-A HeLa Transloc Assay (IC50). As for the experimental part:
as §1
The compounds in listed in Table 1 has the corresponding inhibitory value (IC50 in micromolar) for NIK RelA Translocation Assay as set forth in Table 2.

What is called IC50 is the concentration needed to halve the response being measured. Regarding `NC(=O)c1nc2n(c1C(O)c1ccn[nH]1)C1CC(C1)c1cc(F)c(C#CC3(O)CCCC3)cc1-2` (racemic) [Example 310], the IC50 in assay [1] (HeLa, 5 h) was 2600 nM; in assay [2] (HeLa) it was more than 20000 nM.
The like results for `CNC(=O)c1c(C(N)=O)nc2n1C1CC(C1)c1cc(F)c(C#CC3(O)CCC3)cc1-2` [Example 368, 9-fluoro-10-[2-(1-hydroxycyclobutyl)ethy-nyl]-N3-methyl-5,6,7,12-tetrahydro-5,7-methanobenzo[c]imidazo[1,2-a]azepine-2,3-dicarboxamide] were, in that order, 342 nM and more than 20000 nM.
The like results for `CN1CCC[C@@](O)(C#Cc2ccc3c(c2)-c2nc(C(N)=O)sc2C(F)(F)CO3)C1=O` (racemic) were, in that order, 184 nM and more than 20000 nM.
For `CN1CC[C@@](O)(C#Cc2ccc3c(c2)-c2nc(C(N)=O)sc2CCO3)C1=O` [Example 276], in that order: 94.6 nM and 20000 nM.
Take `CC(C)(O)C#Cc1cc2c(cc1F)C1CC(C1)n1c-2nc(C(N)=O)c1C(C)(C)O` [Example 248, 9-fluoro-10-(3-hydroxy-3-methyl-but-1-ynyl)-3-(1-hydroxy-1-methyl-ethyl)-5,6,7,12-tetrahydro-5,7-methanobenzo[c]imi-dazo[1,2-a]azepine-2-carboxamide]: the IC50 was 1400 nM in assay [1] and more than 20000 nM in assay [2].
For `CNC(=O)c1c(C(N)=O)nc2n1C1CC(C1)c1ccc(C#CC3(O)CCC3)cc1-2` [Example 361, 10-[2-(1-hydroxycyclobutyl)ethynyl]-N3-methyl-5,6,7,12-tetrahydro-5,7-meth-anobenzo[c]imidazo[1,2-a]azepine-2,3-dicarboxamide], the IC50 is 409 nM in assay [1] (HeLa, 5 h) and more than 20000 nM in assay [2] (HeLa).
Regarding `Cc1cc([C@](C)(O)C#Cc2cc3c(cc2F)OCCn2c-3nc(C(N)=O)c2C(=O)NCC#N)no1` [Example 107], the IC50 worked out at 83.1 nM in assay [1] and 20000 nM in assay [2].
`CC(O)(C#Cc1cc2c(cc1F)OCCc1sc(C(N)=O)nc1-2)c1ccccn1` (stereo not shown) [Example 93]: the IC50 was determined as 344 nM in assay [1] (HeLa, 5 h) and 20000 nM in assay [2] (HeLa).
For `CN1CCC(O)(C#Cc2cc3c(cc2F)OCCn2cc(C(N)=O)nc2-3)C1=O` (racemic), in that order: 4100 nM and more than 20000 nM.
The like results for `CNC(=O)c1c(C(N)=O)nc2n1C1CC(C1)c1ccc(C#CC(C)(C)O)cc1-2` (racemic) were, in that order, 736 nM and more than 20000 nM.
Turning to `CN1CC[C@@](O)(C#Cc2cc3c(cc2F)C2CC(C2)c2c-3nc(C(N)=O)n2C)C1=O` (mixture of isomers) [Example 381, (±)-10-[3-hydroxy-3-(2-pyridyl)but-1-ynyl]-5,6,7,12-tetrahydro-5,7 methanobenzo[c]imidazo[1,2-a]azepine-2-carboxamide], the IC50 was 285 nM in assay [1] (HeLa, 5 h) and more than 20000 nM in assay [2] (HeLa).
Turning to `CNC(=O)c1c(C(N)=O)nc2n1CCOc1cc(F)c(C#CC3(O)CCC3)cc1-2` [Example 362, 9-fluoro-10-[2-(1-hydroxycyclobutyl)ethy-nyl]-N3-methyl-5,6-dihydroimidazo[1,2-d][1,4]benzoxazepine-2,3-dicarbox-amide], the IC50 in assay [1] (HeLa, 5 h) is 143 nM; in assay [2] (HeLa) it was more than 20000 nM.
For `CN1CC[C@@](O)(C#Cc2ccc3c(c2)-n2nc(C(N)=O)cc2C2(CC2)CO3)C1=O` [Example 460], the IC50 in assay [1] (HeLa, 5 h) was 252 nM; in assay [2] (HeLa) it was more than 20000 nM.
For `NC(=O)c1cn2c(n1)-c1cc(C#CC3(O)CCC3)c(F)cc1C1CC2C1` [Example 364, 9-fluoro-10-[2-(1-hydroxycyclobutyl)ethy-nyl]-5,6,7,12-tetrahydro-5,7-methano-benzo[c]imidazo[1,2-a]azepine-2-carboxamide], in that order: 985 nM and more than 20000 nM.
